Laboratory results as given in US20220062240A1, “METHODS OF TREATING CANCER USING A CLK INHIBITOR” (BioSplice Therapeutics, Inc., priority 2018, published 2022).
Read-outs that look alike come from different tables or passages of the source.

Legend:
[1] = system: prostate cancer (5 cell lines); assay: CellTiter-Glo Viability Assay, prostate cancer; assay type: cell-based; conditions: Homo sapiens
CLK2 = target: T1, CLK2 (Homo sapiens, UniProt P49760); assay: CLK2 kinase activity assay (Z-lyte, Ser/Thr 6 peptide); assay type: biochemical; conditions: recombinant CLK2 kinase, ATP 60 μM; read-out: EC50
T1 construct: purchased Thermo Fisher (Life Technologies), Z'-LYTE Kinase Assay Kits
T1 sequence (P49760 whole entry): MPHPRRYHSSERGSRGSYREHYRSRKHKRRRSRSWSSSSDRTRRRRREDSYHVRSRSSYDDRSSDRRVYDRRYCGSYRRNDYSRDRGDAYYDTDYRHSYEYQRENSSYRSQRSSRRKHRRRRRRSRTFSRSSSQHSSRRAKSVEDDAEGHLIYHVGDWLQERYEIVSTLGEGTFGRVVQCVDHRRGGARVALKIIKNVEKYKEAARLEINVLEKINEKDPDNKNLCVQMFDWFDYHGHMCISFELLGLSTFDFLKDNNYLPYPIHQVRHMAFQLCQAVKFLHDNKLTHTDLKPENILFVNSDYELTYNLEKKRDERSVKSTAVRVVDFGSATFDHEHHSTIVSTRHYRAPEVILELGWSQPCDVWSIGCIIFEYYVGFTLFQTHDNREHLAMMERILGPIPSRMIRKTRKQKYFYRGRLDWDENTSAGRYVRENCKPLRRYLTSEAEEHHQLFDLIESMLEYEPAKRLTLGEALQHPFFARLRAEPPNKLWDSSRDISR
Protocol: All reactions were performed in duplicate.

[2] = system: liver cancer (3 cell lines); assay: CellTiter-Glo Viability Assay, liver cancer; assay type: cell-based; conditions: Homo sapiens, inhibition of cancer cell proliferation
BT-549 = assay: CellTiter-Glo Viability Assay, breast cancer; assay type: cell-based; conditions: Homo sapiens, 96 h; BT-549, breast cancer, four days; read-out: EC50
T47D = assay: CellTiter-Glo Viability Assay, breast cancer; assay type: cell-based; conditions: Homo sapiens, 96 h, breast cancer, four days, read-out: EC50
CAMA1 = assay: CellTiter-Glo Viability Assay, breast cancer; assay type: cell-based; conditions: Homo sapiens, CAMA-1, 96 h; CAMA1, breast cancer, four days; read-out: EC50
ZR-75-1 = assay: CellTiter-Glo Viability Assay, breast cancer; assay type: cell-based; conditions: Homo sapiens, 96 h; ZR-75-1, breast cancer, four days; read-out: EC50
DU4475 = assay: CellTiter-Glo Viability Assay, breast cancer; assay type: cell-based; conditions: Homo sapiens, DU-4475, 96 h; DU4475, breast cancer, four days; read-out: EC50
MDA-MB-231-Luc = assay: CellTiter-Glo Viability Assay, breast cancer; assay type: cell-based; conditions: Homo sapiens, 96 h; MDA-MB-231-Luc, breast cancer, four days; read-out: EC50
MCF7 = assay: CellTiter-Glo Viability Assay, breast cancer; assay type: cell-based; conditions: Homo sapiens, 96 h; MCF7, breast cancer, four days; read-out: EC50
HCC1599 = assay: CellTiter-Glo Viability Assay, breast cancer; assay type: cell-based; conditions: Homo sapiens, 96 h; HCC1599, breast cancer, four days; read-out: EC50
[3] = system: ovarian cancer (4 cell lines); assay: CellTiter-Glo Viability Assay, ovarian cancer; assay type: cell-based; conditions: Homo sapiens, inhibition of cancer cell proliferation
[4] = system: lung cancer (4 cell lines); assay: CellTiter-Glo Viability Assay, lung cancer; assay type: cell-based; conditions: Homo sapiens, inhibition of cancer cell proliferation
[5] = system: colorectal cancer (6 cell lines); assay: CellTiter-Glo Viability Assay, colorectal cancer; assay type: cell-based; conditions: Homo sapiens, inhibition of cancer cell proliferation
CLK3 = CLK3 (Homo sapiens, UniProt P49761); assay: CLK3 kinase activity assay (Z-lyte, Ser/Thr 18 peptide)
Sequence of CLK3 (P49761 whole entry): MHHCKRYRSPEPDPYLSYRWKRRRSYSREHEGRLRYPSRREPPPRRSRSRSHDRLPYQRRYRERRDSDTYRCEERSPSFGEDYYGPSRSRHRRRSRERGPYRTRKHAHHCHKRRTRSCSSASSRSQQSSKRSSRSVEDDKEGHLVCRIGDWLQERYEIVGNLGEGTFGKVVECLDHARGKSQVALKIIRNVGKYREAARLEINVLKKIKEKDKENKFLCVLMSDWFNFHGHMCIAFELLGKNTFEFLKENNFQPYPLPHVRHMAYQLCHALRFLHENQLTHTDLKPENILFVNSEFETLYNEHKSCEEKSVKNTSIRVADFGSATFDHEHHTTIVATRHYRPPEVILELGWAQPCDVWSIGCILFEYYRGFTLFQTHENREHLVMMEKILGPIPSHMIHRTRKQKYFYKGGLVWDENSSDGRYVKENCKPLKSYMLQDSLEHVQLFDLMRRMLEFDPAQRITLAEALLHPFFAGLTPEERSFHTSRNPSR

[6] = system: haematopoietic & lymphoid tumors (13 cell lines); assay: CellTiter-Glo Viability Assay, haematopoietic & lymphoid tumors; assay type: cell-based; conditions: Homo sapiens, inhibition of cancer cell proliferation
all 50 cell lines = assay: CellTiter-Glo Viability Assay, average across all cell lines; assay type: cell-based; conditions: Homo sapiens; across all 50 cell lines; read-out: average EC50 for inhibition of cancer cell proliferation
Procedure, shortened: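 4-day proliferation, 37° C/5% CO2; 300-3,000 cells/well; compound in duplicate vs DMSO controls. Panel: breast, colorectal, heme/lymphoid, liver, lung, ovarian, pancreatic, prostate lines. Read-out: CellTiter-Glo ATP luminescence, EC50 from dose-response.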

[7] = system: pancreatic cancer (8 cell lines); assay: CellTiter-Glo Viability Assay, pancreatic cancer; assay type: cell-based; conditions: Homo sapiens, inhibition of cancer cell proliferation

O=C1COc2cccc(c2)-c2cncc3[nH]c(nc23)-c2n[nH]c3ccc(cc23)-c2cncc(c2)N1 [Compound 56]
EC50 ([1]; DU-145, read-out: Prostate cancer EC50 Du-145): > 10000 nM
EC50 ([1]; PC-3, PC3 cell line, inhibition of cancer cell proliferation, read-out: Prostate cancer EC50 PC3): 3370 nM
EC50 ([1]; 22Rv1 cell line, inhibition of cancer cell proliferation, read-out: Prostate cancer EC50 22Rv1): 7900 nM
EC50 ([1]; LNCap clone FGC cell line, inhibition of cancer cell proliferation, read-out: Prostate cancer EC50 LNCap clone FGC): > 10000 nM
EC50 ([1]; VCaP (Sigma) cell line, inhibition of cancer cell proliferation, read-out: Prostate cancer EC50 VCaP (Sigma)): > 10000 nM
EC50 (CLK2): 3.3 nM
EC50 ([2]; SNU-398, SNU398 cell line, read-out: Liver cancer, EC50 SNU398): 160 nM
EC50 ([2]; HEPG2 cell line, read-out: Liver cancer, EC50 HEPG2): > 10000 nM
EC50 ([2]; PLC/PRF/5 cell line, read-out: Liver cancer, EC50 PLC/PRF/5): > 10000 nM
EC50 (BT-549): 328 nM
EC50 (T47D): 3220 nM
EC50 (CAMA1): 1530 nM
EC50 (ZR-75-1): 6900 nM
EC50 (DU4475): 42 nM
EC50 (MDA-MB-231-Luc): 6630 nM
EC50 (MCF7): > 10000 nM
EC50 (HCC1599): 248 nM
EC50 ([3]; PA-1, PA1 cell line, read-out: Ovarian cancer, EC50 (μM) PA1): 0.767 µM
EC50 ([3]; TOV112D, TOV-112D cell line, read-out: Ovarian cancer, EC50 (μM) TOV-112D): 1.45 µM
EC50 ([3]; OV-90 cell line, read-out: Ovarian cancer, EC50 (μM) OV-90): > 10 µM
EC50 ([3]; OVCAR-3 cell line, read-out: Ovarian cancer, EC50 (μM) OVCAR-3): 0.436 µM
EC50 ([4]; A-427, A427 cell line, read-out: Lung cancer, EC50 (μM) A427): 1.31 µM
EC50 ([4]; HCC78, HCC-78 cell line, read-out: Lung cancer, EC50 (μM) HCC-78): > 10 µM
EC50 ([4]; NCI-H460 cell line, read-out: Lung cancer, EC50 (μM) NCI-H460): > 10 µM
EC50 ([4]; NCI-H522 cell line, read-out: Lung cancer, EC50 (μM) NCI-H522): 0.224 µM
EC50 ([5]; HCT-116, HCT116 cell line, read-out: Colorectal cancer, EC50 (μM) HCT116): 3.81 µM
EC50 ([5]; HT-29, HT29 cell line, read-out: Colorectal cancer, EC50 (μM) HT29): > 10 µM
EC50 ([5]; SW-620, SW620 cell line, read-out: Colorectal cancer, EC50 (μM) SW620): 1.09 µM
EC50 ([5]; DLD-1 cell line, read-out: Colorectal cancer, EC50 (μM) DLD-1): 9.99 µM
EC50 ([5]; SW48 cell line, read-out: Colorectal cancer, EC50 (μM) SW48): 5.05 µM
EC50 ([5]; SW480 cell line, read-out: Colorectal cancer, EC50 (μM) SW480): 1.38 µM
EC50 (CLK3): 16.3 nM
EC50 ([6]; DND41, DND-41 cell line, read-out: Haematopoietic & Lymphoid tumors, EC50 (μM) DND-41): 0.959 µM
EC50 ([6]; MV4-11, MV-4-11 cell line, read-out: Haematopoietic & Lymphoid tumors, EC50 (μM) MV-4-11): 0.121 µM
EC50 ([6]; Rec1, REC-1 cell line, read-out: Haematopoietic & Lymphoid tumors, EC50 (μM) REC-1): 5.51 µM
EC50 ([6]; SU-DHL-4, SUDHL4 cell line, read-out: Haematopoietic & Lymphoid tumors, EC50 (μM) SUDHL4): 0.365 µM
EC50 ([6]; HL-60 cell line, read-out: Haematopoietic & Lymphoid tumors, EC50 (μM) HL-60): 3.21 µM
EC50 ([6]; JM1 cell line, read-out: Haematopoietic & Lymphoid tumors, EC50 (μM) JM1): 0.394 µM
EC50 ([6]; JURKAT, Clone E6-1 cell line, read-out: Haematopoietic & Lymphoid tumors, EC50 (μM) JURKAT, Clone E6-1): > 10 µM
EC50 ([6]; JeKo-1 cell line, read-out: Haematopoietic & Lymphoid tumors, EC50 (μM) JeKo-1): 0.39 µM
EC50 ([6]; KASUMI-1 cell line, read-out: Haematopoietic & Lymphoid tumors, EC50 (μM) KASUMI-1): 0.767 µM
EC50 ([6]; Loucy cell line, read-out: Haematopoietic & Lymphoid tumors, EC50 (μM) Loucy): 0.485 µM
EC50 ([6]; MOLT-4 cell line, read-out: Haematopoietic & Lymphoid tumors, EC50 (μM) MOLT-4): > 10 µM
EC50 ([6]; TF-1 cell line, read-out: Haematopoietic & Lymphoid tumors, EC50 (μM) TF-1): > 10 µM
EC50 ([6]; TOLEDO cell line, read-out: Haematopoietic & Lymphoid tumors, EC50 (μM) TOLEDO): 0.402 µM
EC50 (all 50 cell lines): 5060 nM
EC50 ([7]; BXPC-3, BxPC3 cell line, read-out: Pancreatic cancer, EC50 BxPC3): > 10000 nM
EC50 ([7]; CAPAN-1, Capan1 cell line, read-out: Pancreatic cancer, EC50 Capan1): 3620 nM
EC50 ([7]; Capan-2, Capan2 cell line, read-out: Pancreatic cancer, EC50 Capan2): > 10000 nM
EC50 ([7]; MIA PaCa-2 cell line, read-out: Pancreatic cancer, EC50 MIA PaCa-2): 697 nM
EC50 ([7]; PANC 05.04 cell line, read-out: Pancreatic cancer, EC50 PANC 05.04): > 10000 nM
EC50 ([7]; PANC-1 cell line, read-out: Pancreatic cancer, EC50 PANC-1): > 10000 nM
EC50 ([7]; UPAFII cell line, read-out: Pancreatic cancer, EC50 UPAFII): > 10000 nM
